IC50 data for 6 molecules are collected here from patent US9115092B2, “Substituted quinazoline and pyrido-pyrimidine derivatives” (Asana Biosciences, LLC, priority 2010, dated 2015).

For one test, the target named is T1, mTOR kinase (Homo sapiens, UniProt P42345).
T1 construct: purchased Millipore, USA
Put plainly: mTOR kinase TR-FRET assay. The format is biochemical. The note with it: read-out: mTO R. Summed up:
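Compounds preincubated 60 min with mTOR (5 ng) in HEPES pH 7.5, EGTA, MnCl2; ULight-p70 S6K Thr389 peptide (50 nM) and ATP (20 μM) then added, 60 min at room temperature. EDTA-stopped, Eu-anti-phospho antibody detection by TR-FRET (665/615 nm); IC50 from variable-slope sigmoidal fit.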
(In general: TR-FRET usually uses a lanthanide donor and a delayed reading to cut background.)

Another test concerns PC3 cells. Put plainly: XTT assay for cell viability, PC3 cells. The format is cell-based, human. The note with it: Homo sapiens, PC-3, cell viability. Summed up: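 PC3 cells seeded at 1000 cells/well, grown 24 h, then exposed to serial dilutions of compound for 96 h. Viability read by XTT dye at 37° C, absorbance 465 nm. EC50 from sigmoidal dose-response fit.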
For orientation: Tetrazolium dyes change colour on reduction, which living cells bring about.

Test [1] concerns the target T2, PI3Kα (wild-type), P110/P85α (Homo sapiens, UniProt P42336).
T2 construct: made in house; host or cells: SF9 insect cells
Put plainly: PI3 Kinase TR-FRET assay, PI3Kα (wild-type). The format is biochemical. In short, it runs like this: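 Sf9-expressed His-purified P110/P85α (5 ng) preincubated 60 min RT with compound and PIP2 in buffer with 40 mM MgCl2, 5 mM DTT; reaction started with ATP (PIP2 and ATP both 10 μM), 30 min RT. PIP3 detected by TR-FRET displacement, 665/615 nm ratio; IC50 from dose-response curves.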

For test [2], the system named is pAKT(T308) (phosphorylated at threonine 308), PC3 cells. Put plainly: In-cell Western assay, pAKT(T308) in PC3 cells. It counts as cell-based. The note with it: Homo sapiens, PC-3, In-cell Western. On the procedure: Cells from human prostate cancer cell line PC3 (American Type Culture Collection (ATCC), Manassas, Va. 20108 USA) were seeded at an optimal density of 22,000 cell/well in 96-well plates containing Ham's F12K medium (90 μL) and incubated overnight. The compound dilutions were carried out in 100% DMSO followed by a dilution in the medium. Test compounds were added in serial dilutions to the wells and incubated for 2 h. The cells were washed and fixed with 4% paraformaldehyde. After incubation at room temperature for 1 h in the dark, blocking was done for 2 h at room temperature. Primary antibodies for phosphorylated (p) AKT(5473) (phosphorylated at serine 473), pAKT(T308) (phosphorylated at threonine 308) and for pS6RP(S235/236) (phosphorylated at serine 235/236) (commercially available from Cell Signaling Technology®, whose protocol was followed for the in-cell western assay, were diluted to the required concentration and added to the corresponding wells followed by overnight incubation at 4° C. Eu-labeled rabbit (PE) (Perkin-Elmer USA catalog #AD0106) secondary antibody was added and incubated for 2 h at room temperature. Delfia® enhancement solution (cat #1244-105, Perkin Elmer USA) was subsequently added to the plate before taking the reading at 615 nm with excitation wavelength of 340 nm, after which 0.5 μg/mL of Hoechst® 33258 dye (Catalog #86140-5, Sigma) was added to the plate and fluorescence emission was read at 460 nm with 355 nm excitation, to evaluate the correction factor. IC50 values were calculated using a sigmoidal dose-response curve fit in GraphPad Prism® v5 software.

Molecules are shown by their SMILES. pIC50: −log10 of the molar value.

T2 sequence (P42336 whole entry): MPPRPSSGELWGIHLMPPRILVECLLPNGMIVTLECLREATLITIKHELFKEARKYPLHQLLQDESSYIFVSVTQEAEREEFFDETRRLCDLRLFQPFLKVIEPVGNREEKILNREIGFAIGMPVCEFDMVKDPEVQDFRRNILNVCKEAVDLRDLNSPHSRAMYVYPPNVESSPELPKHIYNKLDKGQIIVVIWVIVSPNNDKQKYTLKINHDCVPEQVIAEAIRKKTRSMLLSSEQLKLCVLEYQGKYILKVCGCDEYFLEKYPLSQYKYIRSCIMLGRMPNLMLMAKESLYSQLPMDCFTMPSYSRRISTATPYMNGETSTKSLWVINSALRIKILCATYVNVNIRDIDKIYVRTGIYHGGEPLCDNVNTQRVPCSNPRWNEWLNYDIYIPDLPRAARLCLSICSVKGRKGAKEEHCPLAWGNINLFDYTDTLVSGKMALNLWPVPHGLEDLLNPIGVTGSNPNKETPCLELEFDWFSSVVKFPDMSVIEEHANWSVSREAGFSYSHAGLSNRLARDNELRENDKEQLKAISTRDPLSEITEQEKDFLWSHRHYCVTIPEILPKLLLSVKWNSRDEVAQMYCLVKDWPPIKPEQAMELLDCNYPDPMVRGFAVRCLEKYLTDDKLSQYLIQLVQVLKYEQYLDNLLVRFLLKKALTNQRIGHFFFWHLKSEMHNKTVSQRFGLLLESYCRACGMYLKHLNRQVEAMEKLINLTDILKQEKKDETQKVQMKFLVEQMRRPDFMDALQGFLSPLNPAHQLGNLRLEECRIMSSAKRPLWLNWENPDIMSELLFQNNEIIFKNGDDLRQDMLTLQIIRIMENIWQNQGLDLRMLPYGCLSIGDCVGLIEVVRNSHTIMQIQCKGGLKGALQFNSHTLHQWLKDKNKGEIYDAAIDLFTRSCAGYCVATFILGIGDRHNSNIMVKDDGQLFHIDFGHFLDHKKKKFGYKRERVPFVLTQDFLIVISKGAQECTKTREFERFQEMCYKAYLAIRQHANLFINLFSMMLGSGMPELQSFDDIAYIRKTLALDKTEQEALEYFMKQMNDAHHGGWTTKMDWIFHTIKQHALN
T2 sequence (P27986 whole entry partner): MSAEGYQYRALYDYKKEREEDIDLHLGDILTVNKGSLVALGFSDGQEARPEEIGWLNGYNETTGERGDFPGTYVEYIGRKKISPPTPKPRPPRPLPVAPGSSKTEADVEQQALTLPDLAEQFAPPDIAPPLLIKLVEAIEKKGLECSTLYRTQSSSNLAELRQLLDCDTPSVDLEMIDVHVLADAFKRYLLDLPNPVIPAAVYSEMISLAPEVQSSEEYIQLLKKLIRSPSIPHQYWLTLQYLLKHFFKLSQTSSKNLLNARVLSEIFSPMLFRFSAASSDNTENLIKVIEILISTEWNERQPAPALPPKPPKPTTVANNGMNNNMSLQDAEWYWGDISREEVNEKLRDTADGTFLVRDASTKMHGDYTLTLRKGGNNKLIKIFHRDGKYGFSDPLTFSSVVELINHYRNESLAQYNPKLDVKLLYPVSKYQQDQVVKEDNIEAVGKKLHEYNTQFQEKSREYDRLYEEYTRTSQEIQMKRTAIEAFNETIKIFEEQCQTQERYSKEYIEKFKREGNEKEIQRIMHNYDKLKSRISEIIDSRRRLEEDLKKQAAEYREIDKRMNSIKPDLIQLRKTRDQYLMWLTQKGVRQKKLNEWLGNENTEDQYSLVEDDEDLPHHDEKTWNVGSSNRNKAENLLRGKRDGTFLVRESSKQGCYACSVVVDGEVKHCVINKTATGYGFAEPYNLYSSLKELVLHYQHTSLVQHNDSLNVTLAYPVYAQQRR

`CN(C)C(=O)c1ccc(NC(=O)Nc2ccc(-c3nc(N4CCOCC4)c4ccc(-c5ccco5)cc4n3)cc2)cc1` [Example 51, 4-{3-[4-(7-furan-2-yl-4-morpholin-4-yl-quinazolin-2-yl)-phenyl]-ureido}-N,N-dimethyl-benzamide]: the pIC50 is > 7.30 at mTOR kinase, 6.30 to 7.00 with PC3 cells and > 7.30 in test [1].

Turning to `CN(C)C(=O)c1ccc(NC(=O)Nc2ccc(-c3nc(N4CCOCC4)c4ccc(-c5cncnc5)cc4n3)cc2)cc1` [Example 1, N,N-Dimethyl-4-(3-{4-[4-morpholin-4-yl-7-pyrimidin-5-yl-quinazolin-2-yl)-phenyl]-ureido}-benzamide], the pIC50 in test [2] was 5.30 to 6.30; at mTOR kinase, > 7.30; with PC3 cells, 6.30 to 7.00; in test [1] it was > 7.30.

In the case of `CN(C)C(=O)c1ccc(NC(=O)Nc2ccc(-c3nc(N4CCOCC4)c4ccc(-c5cncnc5)cc4n3)cc2)c(F)c1` [Example 133, 3-fluoro-N,N-dimethyl-4-(3-(4-(4-morpholino-7-(pyrimidin-5-yl)quinazolin-2-yl)phenyl)ureido)-benzamide], the pIC50 in test [2] was > 7.00; at mTOR kinase, > 7.30; in the test on PC3 cells, 5.00 to 6.70; in test [1], > 7.30.

`CN(C)C(=O)c1ccc(NC(=O)Nc2ccc(-c3nc(N4CCOCC4)c4ccc(-c5cccnc5)cc4n3)cc2)c(F)c1` [Example 152, 3-fluoro-N,N-dimethyl-4-(3-(4-(4-morpholino-7-(pyridin-3-yl)quinazolin-2-yl)phenyl)ureido)-benzamide]: the pIC50 was > 7.00 in test [2], > 7.30 on mTOR kinase, > 7.00 in the test with PC3 cells and > 7.30 in test [1].

For `CN(C)C(=O)c1ccc(NC(=O)Nc2ccc(-c3nc(N4CCOCC4)c4ccc(-c5cccnc5F)cc4n3)cc2)c(F)c1` [Example 146, 3-fluoro-4-(3-(4-(7-(2-fluoropyridin-3-yl)-4-morpholino-quinazolin-2-yl)phenyl)ureido)-N,N-dimethyl-benzamide], the pIC50 in test [2] is > 7.00; on mTOR kinase it was > 7.30; in the test on PC3 cells, 5.00 to 6.70; in test [1] it was 6.70 to 7.30.

For `Cc1ccc(-c2ccc3c(N4CCOCC4)nc(-c4ccc(NC(=O)Nc5ccc(C(=O)N(C)C)cc5)cc4)nc3c2)o1` [Example 2, N,N-Dimethyl-4-(3-{4-[7-(5-methyl-furan-2-yl)-4-morpholin-4-yl-quinazolin-2-yl]-phenyl}-ureido)-benzamide], the pIC50 in test [2] is 6.30 to 7.00; at mTOR kinase, > 7.30; with PC3 cells, > 7.00; in test [1], > 7.30.
